This data set deals with CCRIS mutagenicity, Ames/micronucleus/aberration tests. Nature of the data set: CCRIS mutagenicity studies.
The mark [1] stands for this setting: Test System: AMES SALMONELLA TYPHIMURIUM, Strain/Indicator: TA1535, Metabolic Activation: NONE, Method: STANDARD PLATE.

Structures are written as SMILES. The source made the active and inactive calls. No rule for the calls is given here.

With `Oc1cc(Cl)c(Cl)c(Cl)c1Cl`, the mutagenic call is, setting by setting: (End Point: IN VITRO CHROMOSOMAL ABERRATIONS, Test System: CHINESE HAMSTER LUNG CELLS (CHL), Metabolic Activation: NONE) “inactive; negative”; (End Point: IN VITRO CHROMOSOMAL ABERRATIONS, Test System: CHINESE HAMSTER LUNG CELLS (CHL), Metabolic Activation: RAT, LIVER, S-9, KC-400) “active; positive (structural changes)”; (End Point: IN VITRO CHROMOSOMAL ABERRATIONS, Test System: CHINESE HAMSTER OVARY CELLS (CHO), Metabolic Activation: NONE) “inactive; negative”; (End Point: IN VITRO CHROMOSOMAL ABERRATIONS, Test System: CHINESE HAMSTER OVARY CELLS (CHO), Metabolic Activation: RAT, LIVER, S-9, AROCLOR 1254) “active; positive (structural changes)”; (Test System: AMES SALMONELLA TYPHIMURIUM, Strain/Indicator: TA97, Metabolic Activation: HAMSTER, LIVER, S-9, AROCLOR 1254 (10 OR 30%), Method: PREINCUBATION) “inactive; negative”; (Test System: AMES SALMONELLA TYPHIMURIUM, Strain/Indicator: TA97, Metabolic Activation: NONE, Method: PREINCUBATION) “inactive; negative”. Besides, the mutagenic call reads like this: (Test System: AMES SALMONELLA TYPHIMURIUM, Strain/Indicator: TA97, Metabolic Activation: RAT, LIVER, S-9, AROCLOR 1254 (10 OR 30%), Method: PREINCUBATION) “inactive; negative”; (Test System: AMES SALMONELLA TYPHIMURIUM, Strain/Indicator: TA98, Metabolic Activation: HAMSTER, LIVER, S-9, AROCLOR 1254 (10 OR 30%), Method: PREINCUBATION) “inactive; negative”; (Test System: AMES SALMONELLA TYPHIMURIUM, Strain/Indicator: TA98, Metabolic Activation: NONE, Method: PREINCUBATION) “inactive; negative”; (Test System: AMES SALMONELLA TYPHIMURIUM, Strain/Indicator: TA98, Metabolic Activation: RAT, LIVER, S-9, AROCLOR 1254 (10 OR 30%), Method: PREINCUBATION) “inactive; negative”; (Test System: AMES SALMONELLA TYPHIMURIUM, Strain/Indicator: TA100, Metabolic Activation: HAMSTER, LIVER, S-9, AROCLOR 1254 (10 OR 30%), Method: PREINCUBATION) “inactive; negative”; (Test System: AMES SALMONELLA TYPHIMURIUM, Strain/Indicator: TA100, Metabolic Activation: NONE, Method: PREINCUBATION) “inactive; negative”. Besides, the mutagenic call (Test System: AMES SALMONELLA TYPHIMURIUM, Strain/Indicator: TA100, Metabolic Activation: RAT, LIVER, S-9, AROCLOR 1254 (10 OR 30%), Method: PREINCUBATION) was “inactive; negative”; the mutagenic call (Test System: AMES SALMONELLA TYPHIMURIUM, Strain/Indicator: TA1535, Metabolic Activation: HAMSTER, LIVER, S-9, AROCLOR 1254 (10 OR 30%), Method: PREINCUBATION) was “inactive; negative”; the mutagenic call (Test System: AMES SALMONELLA TYPHIMURIUM, Strain/Indicator: TA1535, Metabolic Activation: NONE, Method: PREINCUBATION) is “inactive; negative”; the mutagenic call (Test System: AMES SALMONELLA TYPHIMURIUM, Strain/Indicator: TA1535, Metabolic Activation: RAT, LIVER, S-9, AROCLOR 1254 (10 OR 30%), Method: PREINCUBATION) was “inactive; negative”.

On to `O[C@H]1c2ccccc2-c2cc3c(ccc4ccccc43)nc2[C@@H]1O`, for which the mutagenic call is “inactive; negative” (Test System: AMES SALMONELLA TYPHIMURIUM, Strain/Indicator: TA98, Metabolic Activation: GUINEA PIG, LIVER, S-9, 3-METHYLCHOLANTHRENE, Method: STANDARD PLATE); “inactive; negative” (Test System: AMES SALMONELLA TYPHIMURIUM, Strain/Indicator: TA100, Metabolic Activation: GUINEA PIG, LIVER, S-9, 3-METHYLCHOLANTHRENE, Method: STANDARD PLATE); “active; positive” (Test System: CHINESE HAMSTER V-79, Strain/Indicator: V-79/6-THIOGUANINE, Metabolic Activation: GUINEA PIG, LIVER, S-9, 3-METHYLCHOLANTHRENE).

Take `CC(=O)OC/N=[N+](/C)[O-]`: the mutagenic call is, setting by setting: (Test System: AMES SALMONELLA TYPHIMURIUM, Strain/Indicator: G46, Metabolic Activation: NONE, Method: PREINCUBATION) “active; positive”; under setting [1], “active; positive”; (Test System: CHINESE HAMSTER V-79, Strain/Indicator: V-79/OUABAIN, Metabolic Activation: NONE, Method: STANDARD PLATE) “active; positive”; (Test System: E. COLI, Strain/Indicator: WP2 UVRA, Metabolic Activation: HAMSTER, LIVER, S-9, AROCLOR 1254, Method: PREINCUBATION) “inactive; negative”; (Test System: E. COLI, Strain/Indicator: WP2 UVRA, Metabolic Activation: HAMSTER, LIVER, S-9, AROCLOR 1254, Method: STANDARD PLATE) “inactive; negative”; (Test System: E. COLI, Strain/Indicator: WP2 UVRA, Metabolic Activation: HAMSTER, LIVER, S-9, Method: PREINCUBATION) “inactive; negative”. The mutagenic call runs as follows: (Test System: E. COLI, Strain/Indicator: WP2 UVRA, Metabolic Activation: HAMSTER, LIVER, S-9, Method: STANDARD PLATE) “inactive; negative”; (Test System: E. COLI, Strain/Indicator: WP2 UVRA, Metabolic Activation: MOUSE, LIVER, S-9, AROCLOR 1254, Method: PREINCUBATION) “inactive; negative”; (Test System: E. COLI, Strain/Indicator: WP2 UVRA, Metabolic Activation: MOUSE, LIVER, S-9, AROCLOR 1254, Method: STANDARD PLATE) “inactive; negative”; (Test System: E. COLI, Strain/Indicator: WP2 UVRA, Metabolic Activation: MOUSE, LIVER, S-9, Method: PREINCUBATION) “inactive; negative”; (Test System: E. COLI, Strain/Indicator: WP2 UVRA, Metabolic Activation: MOUSE, LIVER, S-9, Method: STANDARD PLATE) “inactive; negative”; (Test System: E. COLI, Strain/Indicator: WP2 UVRA, Metabolic Activation: NONE, Method: PREINCUBATION) “inactive; negative”. In addition, the mutagenic call (Test System: E. COLI, Strain/Indicator: WP2 UVRA, Metabolic Activation: NONE, Method: STANDARD PLATE) is “inactive; negative”; the mutagenic call (Test System: E. COLI, Strain/Indicator: WP2 UVRA, Metabolic Activation: RAT, LIVER, S-9, AROCLOR 1254, Method: PREINCUBATION) is “inactive; negative”; the mutagenic call (Test System: E. COLI, Strain/Indicator: WP2 UVRA, Metabolic Activation: RAT, LIVER, S-9, AROCLOR 1254, Method: STANDARD PLATE) is “inactive; negative”; the mutagenic call (Test System: E. COLI, Strain/Indicator: WP2 UVRA, Metabolic Activation: RAT, LIVER, S-9, Method: PREINCUBATION) is “inactive; negative”; the mutagenic call (Test System: E. COLI, Strain/Indicator: WP2 UVRA, Metabolic Activation: RAT, LIVER, S-9, Method: STANDARD PLATE) was “inactive; negative”; the mutagenic call (Test System: MOUSE LYMPHOMA, Strain/Indicator: L5178Y (TK+/TK-), Metabolic Activation: NONE, Method: SUSPENSION/PLATE) is “active; positive”. The mutagenic call (Test System: MOUSE LYMPHOMA, Strain/Indicator: L5178Y (TK+/TK-), Metabolic Activation: RAT, LIVER, S-9, AROCLOR 1254, Method: SUSPENSION/PLATE) was “active; positive”.

Consider `O=[N+]([O-])C1=Cc2c3ccc4ccccc4c3cc3cccc1c23`, for which the mutagenic call runs as follows: (Test System: AMES SALMONELLA TYPHIMURIUM, Strain/Indicator: TA98, Metabolic Activation: NONE, Method: STANDARD PLATE) “active; positive”; (Test System: AMES SALMONELLA TYPHIMURIUM, Strain/Indicator: TA98, Metabolic Activation: RAT, LIVER, S-9, AROCLOR 1254, Method: STANDARD PLATE) “active; positive”; (Test System: AMES SALMONELLA TYPHIMURIUM, Strain/Indicator: TA100, Metabolic Activation: NONE, Method: STANDARD PLATE) “inactive; negative”; (Test System: AMES SALMONELLA TYPHIMURIUM, Strain/Indicator: TA100, Metabolic Activation: RAT, LIVER, S-9, AROCLOR 1254, Method: STANDARD PLATE) “inactive; negative”; under setting [1], “inactive; negative”; (Test System: AMES SALMONELLA TYPHIMURIUM, Strain/Indicator: TA1535, Metabolic Activation: RAT, LIVER, S-9, AROCLOR 1254, Method: STANDARD PLATE) “inactive; negative”. The mutagenic call runs as follows: (Test System: AMES SALMONELLA TYPHIMURIUM, Strain/Indicator: TA1537, Metabolic Activation: NONE, Method: STANDARD PLATE) “active; positive”; (Test System: AMES SALMONELLA TYPHIMURIUM, Strain/Indicator: TA1537, Metabolic Activation: RAT, LIVER, S-9, AROCLOR 1254, Method: STANDARD PLATE) “active; positive”; (Test System: AMES SALMONELLA TYPHIMURIUM, Strain/Indicator: TA1538, Metabolic Activation: NONE, Method: STANDARD PLATE) “active; positive”; (Test System: AMES SALMONELLA TYPHIMURIUM, Strain/Indicator: TA1538, Metabolic Activation: RAT, LIVER, S-9, AROCLOR 1254, Method: STANDARD PLATE) “inactive; negative”.

Source of the values: PubChem BioAssay AID1259407 (Chemical Carcinogenesis Research Information System (CCRIS), 2018).
